Literature values in patent US6440950B1, “Selective and non-invasive visualization or treatment of vasculature” (The Johns Hopkins University, priority 1994, dated 2002).

Tests used:
[1] = in vivo
[2] = used intraperitonially in a few patients
[3] = in a number of species

aluminum phthalocyanine tetrasulfonate [AlPcS4]
time to removal from the blood [1]: ≤ 24 h
water solubility: water soluble
side effects [2]: no side effects have been reported
toxicity [3]: non-toxic
